According to ChEMBL document CHEMBL1268874, “A concise, total synthesis and antibacterial evaluation of 2-hydroxy-1-(1H-indol-3-yl)-4-methylpentan-3-one” (2010):
In brackets after ≈: the same amount, converted by molar mass.

Columns and labels:
Assay type in all cases: functional
Bacillus subtilis = experiment: Antibacterial activity against Bacillus subtilis BD54 after 16 to 20 hrs by broth microdilution method
Enterococcus faecalis [1] = experiment: Antibacterial activity against Enterococcus faecalis ATCC 29212 after 16 to 20 hrs by broth microdilution method
Burkholderia cepacia [2] = experiment: Antibacterial activity against Burkholderia cepacia 39277 after 16 to 20 hrs by broth microdilution method
Enterococcus faecalis [3] = experiment: Antibacterial activity against vancomycin-resistant Enterococcus faecalis ATCC 51575 after 16 to 20 hrs by broth microdilution method
Escherichia coli [4] = experiment: Antibacterial activity against Escherichia coli 700 expressing TolC after 16 to 20 hrs by broth microdilution method
Klebsiella pneumoniae [5] = experiment: Antibacterial activity against Klebsiella pneumoniae 700603 after 16 to 20 hrs by broth microdilution method
Bacillus anthracis = experiment: Antibacterial activity against Bacillus anthracis Sterne after 16 to 20 hrs by broth microdilution method
Staphylococcus aureus [6] = experiment: Antibacterial activity against Staphylococcus aureus ATCC 25923 after 16 to 20 hrs by broth microdilution method
Escherichia coli [7] = experiment: Antibacterial activity against TolC deficient Escherichia coli 701 after 16 to 20 hrs by broth microdilution method
Burkholderia cepacia [8] = experiment: Antibacterial activity against Burkholderia cepacia 55792 after 16 to 20 hrs by broth microdilution method
Staphylococcus aureus [9] = experiment: Antibacterial activity against methicillin-resistant Staphylococcus aureus 1094 after 16 to 20 hrs by broth microdilution method
Pseudomonas aeruginosa [10] = experiment: Antibacterial activity against Pseudomonas aeruginosa PAO1 after 16 to 20 hrs by broth microdilution method
[11] = test system: Stenotrophomonas maltophilia; experiment: Antibacterial activity against Stenotrophomonas maltophilia ATCC 13637 after 16 to 20 hrs by broth microdilution method
Klebsiella pneumoniae [12] = experiment: Antibacterial activity against Klebsiella pneumoniae 13882 after 16 to 20 hrs by broth microdilution method
Acinetobacter baumannii = experiment: Antibacterial activity against Acinetobacter baumannii ATCC 19606 after 16 to 20 hrs by broth microdilution method; conditions: ATCC 19606 = CIP 70.34 = JCM 6841
Pseudomonas aeruginosa [13] = experiment: Antibacterial activity against DmexAB-oprM deletion mutant of Pseudomonas aeruginosa PAO1 after 16 to 20 hrs by broth microdilution method
[14] = Bacillus subtilis, BD54, read-out: MIC

`CC(=O)OC(C(=O)Cc1c[nH]c2ccccc12)C(C)C` (centres undefined) gave an MIC (Bacillus subtilis; [14]) greater than 80 µg/mL, an MIC (Enterococcus faecalis [1]) greater than 80 µg/mL and an MIC (Burkholderia cepacia [2]) greater than 80 µg/mL. It also gave an MIC (Enterococcus faecalis [3]) greater than 80 µg/mL, an MIC (Escherichia coli [4]) greater than 80 µg/mL and an MIC (Klebsiella pneumoniae [5]) greater than 80 µg/mL. It also gave an MIC (Bacillus anthracis) greater than 80 µg/mL, an MIC (Staphylococcus aureus [6]) greater than 80 µg/mL and an MIC (Escherichia coli [7]) greater than 80 µg/mL. For the same compound, the MIC (Burkholderia cepacia [8]) was greater than 80 µg/mL, the MIC (Staphylococcus aureus [9]) was greater than 80 µg/mL and the MIC (Pseudomonas aeruginosa [10]) was greater than 80 µg/mL. For the same compound, the MIC [11] was greater than 80 µg/mL, the MIC (Klebsiella pneumoniae [12]) was greater than 80 µg/mL and the MIC (Acinetobacter baumannii) was greater than 80 µg/mL.
With `CC(=O)OC(Cc1c[nH]c2ccccc12)C(=O)C(C)C` (centres undefined) the MIC (Bacillus subtilis; [14]) was greater than 80 µg/mL, the MIC (Enterococcus faecalis [1]) was greater than 80 µg/mL and the MIC (Burkholderia cepacia [2]) was greater than 80 µg/mL. The MIC (Enterococcus faecalis [3]) was greater than 80 µg/mL, the MIC (Escherichia coli [4]) was greater than 80 µg/mL and the MIC (Klebsiella pneumoniae [5]) was greater than 80 µg/mL. For the same compound, the MIC (Bacillus anthracis) was greater than 80 µg/mL, the MIC (Staphylococcus aureus [6]) was greater than 90 µg/mL and the MIC (Escherichia coli [7]) was greater than 80 µg/mL. It also gave an MIC (Burkholderia cepacia [8]) greater than 80 µg/mL, an MIC (Staphylococcus aureus [9]) greater than 80 µg/mL and an MIC (Pseudomonas aeruginosa [10]) greater than 80 µg/mL. The MIC [11] was greater than 80 µg/mL, the MIC (Klebsiella pneumoniae [12]) was greater than 80 µg/mL and the MIC (Acinetobacter baumannii) was greater than 80 µg/mL.
Work on `CC(C)C(O)C(=O)Cc1c[nH]c2ccccc12` (single isomer, unassigned; (+)) yielded an MIC (Bacillus subtilis) greater than 40 µg/mL, an MIC (Enterococcus faecalis [1]) greater than 80 µg/mL and an MIC (Burkholderia cepacia [2]) greater than 80 µg/mL. For the same compound, the MIC (Enterococcus faecalis [3]) was greater than 80 µg/mL and the MIC (Burkholderia cepacia [8]) was greater than 80 µg/mL.
`CC(C)C(=O)C(O)Cc1c[nH]c2ccccc12` (single isomer, unassigned; (+)) gave an MIC (Bacillus subtilis; [14]) greater than 80 µg/mL, an MIC (Enterococcus faecalis [1]) greater than 80 µg/mL and an MIC (Burkholderia cepacia [2]) greater than 80 µg/mL. It also gave an MIC (Enterococcus faecalis [3]) greater than 80 µg/mL, an MIC (Escherichia coli [4]) greater than 80 µg/mL and an MIC (Klebsiella pneumoniae [5]) greater than 80 µg/mL. It also gave an MIC (Bacillus anthracis) greater than 80 µg/mL, an MIC (Staphylococcus aureus [6]) greater than 80 µg/mL and an MIC (Escherichia coli [7]) greater than 80 µg/mL. It also gave an MIC (Burkholderia cepacia [8]) greater than 80 µg/mL, an MIC (Staphylococcus aureus [9]) greater than 80 µg/mL and an MIC (Pseudomonas aeruginosa [10]) greater than 80 µg/mL. It also gave an MIC [11] greater than 80 µg/mL, an MIC (Klebsiella pneumoniae [12]) greater than 80 µg/mL and an MIC (Acinetobacter baumannii) greater than 80 µg/mL.
With `CC(C)C(O)C(=O)Cc1c[nH]c2ccccc12` (single isomer, unassigned; (-)) the MIC (Bacillus subtilis; [14]) was greater than 80 µg/mL, the MIC (Escherichia coli [4]) was greater than 80 µg/mL and the MIC (Klebsiella pneumoniae [5]) was greater than 80 µg/mL. It also gave an MIC (Bacillus anthracis) greater than 80 µg/mL, an MIC (Staphylococcus aureus [6]) greater than 80 µg/mL and an MIC (Escherichia coli [7]) greater than 80 µg/mL. It also gave an MIC (Staphylococcus aureus [9]) greater than 80 µg/mL, an MIC (Pseudomonas aeruginosa [10]) greater than 80 µg/mL and an MIC [11] greater than 80 µg/mL. It also gave an MIC (Klebsiella pneumoniae [12]) greater than 80 µg/mL and an MIC (Acinetobacter baumannii) greater than 80 µg/mL.
For `O=C(O)c1cn(C2CC2)c2cc(N3CCNCC3)c(F)cc2c1=O` [CIPROFLOXACIN], the MIC (Bacillus subtilis; [14]) was 0.078 µg/mL (≈ 0.235 µM), the MIC (Enterococcus faecalis [1]) was 1.9 µg/mL (≈ 5.73 µM) and the MIC (Burkholderia cepacia [2]) was 0.078 µg/mL (≈ 0.235 µM). The MIC (Enterococcus faecalis [3]) was 0.625 µg/mL (≈ 1.89 µM), the MIC (Klebsiella pneumoniae [5]) was 0.313 µg/mL (≈ 0.945 µM) and the MIC (Staphylococcus aureus [6]) was 469 µg/mL (≈ 1420 µM). The MIC (Pseudomonas aeruginosa [13]) was 20 µg/mL (≈ 60.4 µM), the MIC (Burkholderia cepacia [8]) was 0.039 µg/mL (≈ 0.118 µM) and the MIC (Staphylococcus aureus [9]) was 20 µg/mL (≈ 60.4 µM). The MIC (Pseudomonas aeruginosa [10]) was 0.313 µg/mL (≈ 0.945 µM), the MIC [11] was 0.313 µg/mL (≈ 0.945 µM) and the MIC (Klebsiella pneumoniae [12]) was 0.078 µg/mL (≈ 0.235 µM). For the same compound, the MIC (Acinetobacter baumannii) was 1.25 µg/mL (≈ 3.77 µM).
